What all share (type): cell-based
In test [1] the test system is A375. The test can be described thus: Caspase-Glo 3/7 apoptosis assay, A375. Particulars: A375 cells, 10 μM, 24 h. The procedure:
Apoptosis activity was evaluated using Caspase-Glo 3/7 Assay kit (Promega-G8091) according to the manufacturer's instructions. Cells were grown as above and harvested from exponential phase cultures, counted and plated in 96 black well flat-bottom microtiter plates at a cell density depending on the cell line's growth rate (3,000-10,000 cells/well depending on the cell line's growth rate). Following an overnight incubation, compounds were added to the cell plates at various concentrations (highest at […]) with the DMSO concentration maintained at 0.1% for a 24 h period treatment. 100 μL of Caspase-Glo 3/7 Reagent was added to each well of 96-well plate containing 100 μL culture medium, and after 30 min at room temperature, luminescence was measured with the microplate luminometer (EnVision Perkin Elmer). The induced relative Caspase 3/7 activity of the tested compounds was determined by the following formula: Relative Caspase 3/7 activity (fold increase)=(RLU compound−RLU blank)/(RLU control−RLU blank).

Test [2] has as its system SHP-77. Nature of the test: CellTiter-Glo cell viability, SHP-77. Conditions: Homo sapiens, SHP77; SHP-77 cells, 72 h with compound. The procedure: (§1) Antitumor activity against a panel of cancer cell lines Antitumor activity of the compounds was assessed by using the CellTiter-Glow® Luminescent Cell Viability assay (Promega #G7572) according to the manufacturer's instructions. The compounds were tested at 5 or 6 concentrations in 1:2 dilution increments (highest concentration 10 µM) in triplicate well conditions.
(§2) Tumor cells were grown at 37° C. in a humidified atmosphere with 5% CO2 in RPMI 1640 or DMEM medium, supplemented with 10% (v/v) fetal calf serum and 50 μg/ml gentamicin for up to 20 passages, and were passaged once or twice weekly. Cells were harvested using TrypLE or PBS buffer containing 1 mM EDTA, and the percentage of viable cells is determined using a cell counter.
(§3) Cells were harvested from exponential phase cultures, counted and plated in 96 well flat-bottom microtiter plates at a cell density depending on the cell line's growth rate (4,000-20,000 cells/well depending on the cell line's growth rate) in RPMI 1640 or DMEM medium supplemented with 10% (v/v) fetal calf serum and 50 μg/ml gentamicin (140 μl/well). Cultures were incubated at 37° C. and 5% CO2 in a humidified atmosphere. […] Viability of cells was quantified by the CellTiter-Glow® Luminescent Cell Viability assay (Promega #G7572). Luminescence was measured with the microplate luminometer (En Vision Perkin Elmer). […]
Background: Cellular ATP, detected with luciferase, serves as a proxy for viable cell number.

Test [3] concerns Wnt/Beta-Catenin. The test can be described thus: SelectScreen CellSensor pathway inhibition, Wnt/Beta-Catenin. Particulars: Homo sapiens, HCT-116; LEF-TCF-bla HCT116, no stimulus (constitutively activated). As to the method: (§4) Inhibition of various cellular pathways known to be involved in malignancy was tested using the SelectScreen Cell-based Pathway Profiling GeneBLAzer™ cell signaling pathway specific CellSensor™ cell lines ((Thermo Fisher). The assay is based on a beta-lactamase reporter activity which is modulated and can be measured quantitatively and selectively with the LiveBLAzer™-FRET B/G Loading Substrate. SelectScreen Cell-Based Pathway Profiling Service uses XLfit from IDBS. The dose response curve is curve fit to model number 205 (sigmoidal dose-response model). Custom logic was built by Thermo Fisher for the data analysis tool to address the different compound characteristics that can be observed with functional assays.
Wnt/Beta-Catenin—LEF-TCF-bla HCT116—Inhibitor Screen, Constitutively Activated
LEF-TCF-bla HCT116 cells are thawed and resuspended in Assay Media (OPTI-MEM, 0.5% dialyzed FBS, 0.1 mM NEAA, 1 mM Sodium Pyruvate, 100 U/mL/100 μg/mL Pen/Strep) to a concentration of 312,500 cells/mL. 32 μL of cell suspension is added to each well of a 384-well Poly-D-Lysine assay plate. Cells in Assay Media are incubated for 16-24 hours in the plate at 37° C./5% CO2 in a humidified incubator. 4 μL of a 10× serial dilution of ICG-001 (control inhibitor starting concentration, 25,000 nM) or compounds are added to appropriate wells of the plate. […] The plate is read on a fluorescence plate reader.

Test [4] relates to MAPK/MEK/B-raf. Nature of the test: SelectScreen CellSensor pathway inhibition, MAPK/MEK/B-raf. Particulars: Homo sapiens, A-375; AP1-bla A375, no stimulus (constitutively activated). The procedure:
as §4
MAPK/MEK/B-raf—AP1-bla A375—Inhibitor Screen, Constitutively Activated
AP1-bla A375 cells are thawed and resuspended in Assay Media (OPTI-MEM, 0.5% dialyzed FBS, 0.1 mM NEAA, 1 mM Sodium Pyruvate, 100 U/mL/[…] Pen/Strep) to a concentration of 312,500 cells/mL. 4 μL of a 10×serial dilution of Rafi Kinase Inhibitor (control inhibitor starting concentration, 10,000 nM) or compounds are added to appropriate wells of a TC-Treated assay plate. 32 μL of cell suspension (10,000 cells) is added to the wells. 4 μL of Assay Media is added to all wells to bring the final assay volume to 40 μL. […] The plate is read on a fluorescence plate reader.

For test [5], the system named is LoVo. The test can be described thus: CellTiter-Glo cell viability, LoVo. Conditions: Homo sapiens; LoVo cells, 72 h with compound. The procedure: as §1, §2, §3
The subject of test [6] is SK-Mel-5. The test can be described thus: CellTiter-Glo cell viability, SK-Mel-5. Conditions: Homo sapiens; SK-Mel-5 cells, 72 h with compound. As to the method:
as §1, §2
Cells were harvested from exponential phase cultures, counted and plated in 96 well flat-bottom microtiter plates at a cell density depending on the cell line's growth rate (4,000-20,000 cells/well depending on the cell line's growth rate) in RPMI 1640 or DMEM medium supplemented with 10% (v/v) fetal calf serum and 50 μg/ml gentamicin (140 μl/well). Cultures were incubated at 37° C. and 5% CO2 in a humidified atmosphere. After 24 h, 10 μl of test compounds or control medium are added, and left on the cells for another 72 h. Compounds were serially diluted in DMSO, transferred in cell culture medium, and added to the assay plates. The DMSO concentration was kept constant at <0.2% v/v across the assay plate. Viability of cells was quantified by the CellTiter-Glow® Luminescent Cell Viability assay (Promega #G7572). Luminescence was measured with the microplate luminometer (En Vision Perkin Elmer).
Sigmoidal concentration-response curves were fitted to the data points (test-versus-control, T/C values) obtained for each tumor model using Graph Pad prism 5.02 software. IC50 values are reported as absolute IC50 values, being the concentration of test compound at the intersection of the concentration-response curves with T/C=50%.

As usually defined, the IC50 is the concentration needed to halve the response being measured. On to `COc1ccc2c(=O)c(-c3ccc(CCCC[P+](c4ccccc4)(c4ccccc4)c4ccccc4)cc3)coc2c1OC.[Br-]` [SND470, (4-(4-(7,8-Dimethoxy-4-oxo-4H-chromen-3-yl)phenyl)butyl)triphenylphosphonium bromide], for which the “Fold activation of Caspase 3/7” value in test [1] is 13.98 Fold. Besides, the 50% inhibitory concentration (IC50) came to 920 nM in test [2]; 970 nM in test [3]; 2700 nM in test [4]; 910 nM in test [5]; 470 nM in test [6].
